Reference: patent US9157102B2, “Over-expression of NADH-dependent oxidoreductase (fucO) for increasing furfural or 5-hydroxymethylfurfural tolerance” (UNIVERSITY OF FLORIDA RESEARCH FOUNDATION, INCORPORATED, priority 2011, dated 2015)
Converted amounts (≈) assume the structure as drawn. Where two headings read alike, the source gives them in different places.

Legend:
FucO [1] = molecular target: T1, FucO (Escherichia coli, UniProt P0A9S1); settings: native substrate, reference (6); cited from earlier work
T1 construct: The FucO coding region was cloned into pET15b to produce pLOI4322; made in house; host or cells: E. coli BL21(λDE3) carrying pLOI4322
T1 sequence (P0A9S1 1-382): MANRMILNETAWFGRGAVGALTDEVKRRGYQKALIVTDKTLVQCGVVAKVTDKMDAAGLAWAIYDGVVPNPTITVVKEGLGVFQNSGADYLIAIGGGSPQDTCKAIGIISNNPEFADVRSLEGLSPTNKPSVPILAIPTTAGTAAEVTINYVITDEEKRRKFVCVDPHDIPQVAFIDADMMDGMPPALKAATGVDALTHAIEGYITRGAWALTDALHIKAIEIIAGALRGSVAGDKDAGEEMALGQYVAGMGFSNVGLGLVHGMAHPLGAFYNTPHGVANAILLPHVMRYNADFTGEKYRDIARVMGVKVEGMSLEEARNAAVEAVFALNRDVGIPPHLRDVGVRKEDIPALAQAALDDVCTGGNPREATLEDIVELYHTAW

FucO [2] = molecular target: T1, FucO; test: NADH-/NADPH-dependent furan reduction by purified his-tagged FucO; type: biochemical; settings: for NADPH-dependent reductase activity: purified enzyme, NADPH as cofactor
Protocol: (§1) Cultures were grown overnight to a cell density of approximately 0.66 mg dew ml^−1 (37° C.) in closed tubes containing 20 ml AM1 (50 g liter^−1 xylose, 0.1 mM IPTG and 12.5 mg liter^−1 ampicillin). Cells were harvested by centrifugation (7,000 g for 5 min, 4° C.), washed twice with 10 ml of cold sodium phosphate buffer (50 mM pH 7.0), resuspended to a cell density of 4.4 mg dew ml^−1, and disrupted in buffer containing 1 mM dithiothreitol using a Fastprep-24 (MP Biomedicals, Solon, Ohio). After clarification at 13,000 g (10 min, 4° C.), protein concentration was determined using a BCA™ Protein Assay Kit (Thermo Scientific, Rockford, Ill.). Furfural-dependent reduction was measured using NADH and NADPH by monitoring the decrease in absorbance at 340 nm (extinction coefficient of NADH of 6,220 M^−1 cm^−1; extinction coefficient of NADPH of […]). Reaction mixtures contained 200 mM phosphate buffer (pH 7.0), 10 mM furfural, and 0.2 mM NADH or NADPH. NADH-dependent and NADPH-dependent reduction of 5-HMF (10 mM) was measured in a similar fashion.
(§2) For the purification of his-tagged FucO, BL21(pLOI4322) was grown in Luria broth at 37° C. When the culture density reached 0.35 g dew liter^−1, IPTG (0.1 mM) was added to induce overexpression. After incubation for 4 h, cells were harvested (7,000 g for 5 min, 4° C.), washed once with 10 mM Tris-HCl (pH 7.1), and lysed using a French pressure cell. After clarification at 30,000 g (1 h, 4° C.), crude extracts were passed through a 0.22 μm polyvinylidene fluoride (PVDF) filter, and further purified using a 1-ml HiTrap™ nickel column (GE Healthcare, Piscataway, N.J.). Purified enzyme was dialyzed in 100 mM phosphate buffer using a Thermo Slide-A-Lyzer and quantified using the BCA™ Protein Assay Kit (Thermo Scientific, Rockford, Ill.).

LY180(pTrc99A) = test: Furfural toxicity in tube cultures, vector control; type: cell-based; settings: Escherichia coli, 48 h, read-out: minimum inhibitory concentration
Protocol: (§3) Furfural toxicity was measured in tube cultures (13 mm by 100 mm) containing 4 ml of AM1 medium with 50 g xylose, 12.5 mg liter^−1 ampicillin, furfural, and other supplements as indicated (28, 29). Cultures were inoculated to an initial density of […] (0.1 mM) was included for fucO induction. Cell mass was measured at 550 nm after incubation for 48 h (37° C.).

LY180(pLOI4319) = test: Furfural toxicity in tube cultures, IPTG-induced fucO; type: cell-based; settings: Escherichia coli; AM1 medium, xylose, 48 h, 37° C., 0.1 mM IPTG-induced fucO; read-out: minimum inhibitory concentration
Protocol: as §3

YqhD = YqhD (Escherichia coli, UniProt Q46856); settings: cited from earlier work
[3] = substrate: O=Cc1ccc(CO)o1; test: NADH-/NADPH-dependent furan reduction by purified his-tagged FucO; type: biochemical, Escherichia coli; settings: other: substrate of purified his-tagged FucO, NADH-specific reduction; 37.0 °C
Protocol: as §1, §2

[4] = substrate: O=Cc1ccco1; test: as above; type: biochemical, Escherichia coli; settings: other: substrate of purified his-tagged FucO, NADH-specific reduction; 37.0 °C
Protocol: as §1, §2

Chain of YqhD (Q46856 whole entry): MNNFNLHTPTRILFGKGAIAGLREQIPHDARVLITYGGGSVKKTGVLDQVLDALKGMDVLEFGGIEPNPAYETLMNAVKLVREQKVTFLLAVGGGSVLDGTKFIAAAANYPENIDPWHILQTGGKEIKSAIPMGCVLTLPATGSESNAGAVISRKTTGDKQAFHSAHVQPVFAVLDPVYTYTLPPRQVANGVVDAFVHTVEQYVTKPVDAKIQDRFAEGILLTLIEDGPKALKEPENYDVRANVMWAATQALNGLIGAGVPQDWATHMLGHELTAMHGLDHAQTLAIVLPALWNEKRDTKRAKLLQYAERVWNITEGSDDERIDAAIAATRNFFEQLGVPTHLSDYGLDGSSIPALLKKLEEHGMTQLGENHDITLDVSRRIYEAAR

C[C@H](O)C=O [L-lactaldehyde]
Km (FucO [1]): 0.035 mM
Vmax (FucO [1]): 20 μmol min^−1 mg protein^−1

O=Cc1ccco1 [furfural]
Vmax relative to that for L-lactaldehyde (FucO [2]; FucO): 10%
NADPH-dependent reductase activity (FucO [2]): No NADPH-dependent furfural or 5-HMF reductase activity
MIC (LY180(pTrc99A)): 10 mM (≈ 961 µg/mL)
MIC (LY180(pLOI4319)): 15 mM (≈ 1440 µg/mL)
Km (YqhD; reference (29), read-out: Km for furfural): 9 mM

NC(=O)C1=CN([C@@H]2O[C@H](COP(=O)(O)OP(=O)(O)OC[C@H]3O[C@@H](n4cnc5c(N)ncnc54)[C@H](OP(=O)(O)O)[C@@H]3O)[C@@H](O)[C@H]2O)C=CC1 [NADPH]
Km (YqhD; read-out: Km for NADPH): 0.008 mM

O=Cc1ccc(CO)o1 [5-HMF, 5-hydroxymethylfurfural]
NADPH-dependent reductase activity (FucO [2]): No NADPH-dependent furfural or 5-HMF reductase activity

B1: FucO (Escherichia coli K-12) (protein)
chain: T1 sequence (P0A9S1 1-382)
notes: The FucO coding region was cloned into pET15b to produce pLOI4322; made in house; host or cells: E. coli BL21(λDE3) carrying pLOI4322
Km [3]: 0.7 ± 0.3 mM
Vmax [3]: 0.30±0.05 mmol min^−1 mg protein^−1
Km [4]: 0.4 ± 0.2 mM
Vmax [4]: 1.9±0.4 mmol min^−1 mg protein^−1
